This note sets out measurements from US11590116B2 (THERAVANCE BIOPHARMA R&D IP, LLC, priority 2019, dated 2023).

Assay [1] addresses T1, recombinant human ALK5 (TGF-βR1) protein (Homo sapiens, UniProt P36897).
T1 construct: purchased Life Technologies PR9075A
T1 sequence (P36897 34-503): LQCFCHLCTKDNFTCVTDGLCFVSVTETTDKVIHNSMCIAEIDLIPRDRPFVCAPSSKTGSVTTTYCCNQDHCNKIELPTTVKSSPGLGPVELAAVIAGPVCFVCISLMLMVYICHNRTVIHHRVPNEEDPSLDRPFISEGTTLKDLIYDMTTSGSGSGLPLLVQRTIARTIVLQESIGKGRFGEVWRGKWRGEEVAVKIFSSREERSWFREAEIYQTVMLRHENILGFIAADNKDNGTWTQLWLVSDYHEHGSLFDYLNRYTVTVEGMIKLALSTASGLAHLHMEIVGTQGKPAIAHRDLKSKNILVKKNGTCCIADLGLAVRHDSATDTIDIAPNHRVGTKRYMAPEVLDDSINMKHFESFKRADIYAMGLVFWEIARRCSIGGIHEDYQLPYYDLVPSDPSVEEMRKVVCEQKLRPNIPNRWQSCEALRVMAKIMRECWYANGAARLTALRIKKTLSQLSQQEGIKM
In words: Biochemical ALK5 (TGF-βR1) assay to measure pKi (LANCE Ultra ULight kinase assay). The conditions noted are these: apparent pKi from pIC50 by Cheng-Prusoff, read-out: ALK5 pKi (converted). In outline:
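After a 60 min room-temperature preincubation of ALK5 with compound, phosphorylation proceeds 60 min at 37 °C on ATP addition (125 μM as 5× stock). Detection: Eu-labelled phospho-Thr1342 Topo IIα antibody in EDTA buffer, pH 7.0; emission 665 nm.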

The test system of assay [2] is TGF-β-stimulated SMAD3 phosphorylation in BEAS-2B cells. In words: Cellular ALK5 potency assay, inhibition of TGF-β stimulated pSMAD3 formation in BEAS-2B cells. It counts as cell-based. Conditions: Homo sapiens; inhibition of TGF-β stimulated pSMAD3 formation, BEAS-2B cells; read-out: BEAS2B pIC50 (converted). In outline: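 SMAD3 phosphorylation was measured by AlphaLISA after 30 min TGF-β stimulation (10 ng/mL final) of BEAS-2B cells preincubated 1 h with compound at 37 °C. Results given as pIC50.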

Bounds are passed on as bounds.

As for `Cc1cccc(-c2n[nH]cc2-c2ccc3ncc(-c4c[nH]nc4C(F)(F)F)cc3n2)n1` [Compound 484, 2-[3-(6-methyl-2-pyridyl)-1H-pyrazol-4-yl]-7-[3-(trifluoromethyl)-1H-pyrazol-4-yl]-1,5-naphthyridine], the Ki in assay [1] was 0.0398 to 0.316 nM. In addition, the IC50 in assay [2] was < 20 nM.
For `Cc1cccc(-c2n[nH]cc2-c2ccc3ncc(-c4cnn(CCN5CCNCC5)c4)cc3n2)n1` [Compound 178, 2-[3-(6-methyl-2-pyridyl)-1H-pyrazol-4-yl]-7-[1-(2-piperazin-1-ylethyl)pyrazol-4-yl]-1,5-naphthyridine], in assay [1], the Ki was < 0.0316 nM. Further, the IC50 in assay [2] is 25.1 to 158 nM.
For `Cc1nc(-c2n[nH]cc2-c2ccc3ncc(-c4cn[nH]c4)cc3c2)ccc1F` [Compound 449, 6-[3-(5-fluoro-6-methyl-2-pyridyl)-1H-pyrazol-4-yl]-3-(1H-pyrazol-4-yl)quinoline], in that order: < 0.0316 nM and < 20 nM.
Regarding `Cc1cccc(-c2[nH]cnc2-c2ccc3ncc(C(=O)OCCN4C[C@@H](C)N[C@@H](C)C4)cc3c2)n1` [Compound 886, 2-((3S,5R)-3,5-dimethylpiperazin-1-yl)ethyl 6-(5-(6-methylpyridin-2-yl)-1H-imidazol-4-yl)quinoline-3-carboxylate], the Ki in assay [1] was 0.0398 to 0.316 nM. Further, in assay [2], the IC50 was 25.1 to 158 nM.
For `CNCCn1cc(-c2cnc3ccc(-c4c(-c5cccc(C)n5)nn5c4NCC5)cc3c2)cn1` [Compound 632, N-methyl-2-[4-[6-[6-(6-methyl-2-pyridyl)-2,3-dihydro-1H-imidazo[1,2-b]pyrazol-7-yl]-3-quinolyl]pyrazol-1-yl]ethanamine] the same measures were 0.0398 to 0.316 nM and 25.1 to 158 nM.
Turning to `Cc1cccc(-c2[nH]cnc2-c2ccc3ncc(C(=O)O[C@H]4CCCC[C@@H]4N)cc3c2)n1` [Compound 879, (1S,2S)-2-aminocyclohexyl 6-(5-(6-methylpyridin-2-yl)-1H-imidazol-4-yl)quinoline-3-carboxylate], the Ki in assay [1] is 3.98 to 31.6 nM. Besides, the IC50 in assay [2] was 25.1 to 158 nM.
As to `Cc1cccc(-c2[nH]ncc2-c2ccc3ncc(C(=O)OC4CCC(N)CC4)cc3c2)n1` (stereo not shown) [Compound 1216, (4-aminocyclohexyl) 6-[5-(6-methyl-2-pyridyl)-1H-pyrazol-4-yl]quinoline-3-carboxylate], the Ki in assay [1] is 0.0398 to 0.316 nM. Moreover, the IC50 in assay [2] was < 20 nM.
For `CCOc1nc(-c2ccc3ncc(Br)cc3c2)c(-c2cccc(C)n2)[nH]1` [Compound 1185, 3-bromo-6-[2-ethoxy-5-(6-methyl-2-pyridyl)-1H-imidazol-4-yl]quinoline] the same measures were 0.398 to 3.16 nM and 25.1 to 158 nM.
In the case of `Cc1cccc(-c2[nH]cnc2-c2ccc3ncc(C(=O)OCCC4CNC4)cc3c2)n1` [Compound 761, 2-(azetidin-3-yl)ethyl 6-[5-(6-methyl-2-pyridyl)-1H-imidazol-4-yl]quinoline-3-carboxylate], the Ki in assay [1] is 0.0398 to 0.316 nM. In addition, the IC50 in assay [2] was 200 to 1260 nM.
For `Cc1cccc(-c2n[nH]cc2-c2ccc3ncc(-c4cnn(CCN)c4)cc3c2)n1` [Compound 435, 2-[4-[6-[3-(6-methyl-2-pyridyl)-1H-pyrazol-4-yl]-3-quinolyl]pyrazol-1-yl]ethanamine] the same measures were < 0.0316 nM and 25.1 to 158 nM.
On to `Cc1cccc(-c2n[nH]cc2-c2ccc3ncc(N4CC(CN)C4)cc3n2)n1` [Compound 279, [1-[6-[3-(6-methyl-2-pyridyl)-1H-pyrazol-4-yl]-1,5-naphthyridin-3-yl]azetidin-3-yl]methanamine], for which the Ki in assay [1] is 0.0398 to 0.316 nM. Also, in assay [2], the IC50 was 25.1 to 158 nM.
For `Cc1cccc(-c2[nH]cnc2-c2ccc3ncc(-c4ccc5c(c4)CCNC5)cc3c2)n1` [Compound 278, 6-[5-(6-methyl-2-pyridyl)-1H-imidazol-4-yl]-3-(1,2,3,4-tetrahydroisoquinolin-6-yl)quinoline] the same measures were 0.0398 to 0.316 nM and < 20 nM.
`Cc1cccc(-c2[nH]cnc2-c2ccc3ncc(-c4cccc(C(=O)O[C@H]5CCN(C)C5)c4)cc3c2)n1` [Compound 522, [(3S)-1-methylpyrrolidin-3-yl] 3-[6-[5-(6-methyl-2-pyridyl)-1H-imidazol-4-yl]-3-quinolyl]benzoate]: the Ki in assay [1] was 0.0398 to 0.316 nM. Further, in assay [2], the IC50 is 25.1 to 158 nM.
For `Cc1cccc(-c2[nH]cnc2-c2ccc3ncc(C4=CC[C@@H](N)CC4)cc3c2)n1` [Compound 171, (1S)-4-[6-[5-(6-methyl-2-pyridyl)-1H-imidazol-4-yl]-3-quinolyl]cyclohex-3-en-1-amine] the same measures were < 0.0316 nM and < 20 nM.
For `Cc1cccc(-c2n[nH]cc2-c2ccc3ncc(N4C[C@@H]5CCN[C@@H]5C4)cc3n2)n1` (racemic) [Compound 598, 2-[3-(6-methyl-2-pyridyl)-1H-pyrazol-4-yl]-7-[rac-(3aS,6aS)-2,3,3a,4,6,6a-hexahydro-1H-pyrrolo[2,3-c]pyrrol-5-yl]-1,5-naphthyridine] the same measures were < 0.0316 nM and 25.1 to 158 nM.
For `Cc1nc(-c2n[nH]cc2-c2ccc3ncc(-c4cnn(C[C@H]5CCC[C@H](N)C5)c4)cc3n2)ccc1F` (racemic) [Compound 395, rac-(1S,3S)-3-[[4-[6-[3-(5-fluoro-6-methyl-2-pyridyl)-1H-pyrazol-4-yl]-1,5-naphthyridin-3-yl]pyrazol-1-yl]methyl]cyclohexanamine], in that order: < 0.0316 nM and 25.1 to 158 nM.
Turning to `Cc1cccc(-c2n[nH]cc2-c2ccc3ncc(N4CC(N)C4)cc3n2)n1` [Compound 193, 1-[6-[3-(6-methyl-2-pyridyl)-1H-pyrazol-4-yl]-1,5-naphthyridin-3-yl]azetidin-3-amine], the Ki in assay [1] was 0.0398 to 0.316 nM. Besides, the IC50 in assay [2] is 25.1 to 158 nM.
For `Cc1cccc(-c2[nH]cnc2-c2ccc3ncc(-c4cccc(C(=O)O)n4)cc3c2)n1` [Compound 1041, 6-[6-[5-(6-methyl-2-pyridyl)-1H-imidazol-4-yl]-3-quinolyl]pyridine-2-carboxylic acid] the same measures were 0.0398 to 0.316 nM and 1580 to 10000 nM.
For `Cc1cccc(-c2n[nH]cc2-c2ccc3nccc(N4CCC(N5CCN(C)CC5)CC4)c3n2)n1` [Compound 845, 8-[4-(4-methylpiperazin-1-yl)-1-piperidyl]-2-[3-(6-methyl-2-pyridyl)-1H-pyrazol-4-yl]-1,5-naphthyridine], in that order: 0.398 to 3.16 nM and 200 to 1260 nM.
As to `Cc1cccc(-c2n[nH]cc2-c2ccc3ncc(-c4nc5c([nH]4)CCNCC5)cc3n2)n1` [Compound 642, 2-[6-[3-(6-methyl-2-pyridyl)-1H-pyrazol-4-yl]-1,5-naphthyridin-3-yl]-1,4,5,6,7,8-hexahydroimidazo[4,5-d]azepine], the Ki in assay [1] is 0.0398 to 0.316 nM. The IC50 in assay [2] was 200 to 1260 nM.
For `CC(=O)N[C@@H]1CC=C(c2cnc3ccc(-c4nc[nH]c4-c4cccc(C)n4)cc3c2)CC1` [Compound 380, N-[(1S)-4-[6-[5-(6-methyl-2-pyridyl)-1H-imidazol-4-yl]-3-quinolyl]cyclohex-3-en-1-yl]acetamide] the same measures were < 0.0316 nM and < 20 nM.
Turning to `CCOC(=O)Cc1ccnc2ccc(-c3c[nH]nc3-c3cccc(C)n3)nc12` [Compound 855, ethyl 2-[6-[3-(6-methyl-2-pyridyl)-1H-pyrazol-4-yl]-1,5-naphthyridin-4-yl]acetate], the Ki in assay [1] is 0.0398 to 0.316 nM. In addition, the IC50 in assay [2] is 25.1 to 158 nM.
For `Cc1cccc(-c2[nH]cnc2-c2ccc3ncc(-c4csc(C(=O)O[C@H]5CCNC5)c4)cc3c2)n1` [Compound 754, [(3S)-pyrrolidin-3-yl] 4-[6-[5-(6-methyl-2-pyridyl)-1H-imidazol-4-yl]-3-quinolyl]thiophene-2-carboxylate], in that order: 0.0398 to 0.316 nM and 25.1 to 158 nM.
Turning to `Cc1cccc(-c2n[nH]cc2-c2ccc3ncc(-c4cn(C)nn4)cc3n2)n1` [Compound 71, 2-[3-(6-methyl-2-pyridyl)-1H-pyrazol-4-yl]-7-(1-methyltriazol-4-yl)-1,5-naphthyridine], the Ki in assay [1] was < 0.0316 nM. For the same compound, the IC50 in assay [2] was 25.1 to 158 nM.
For `Cc1cccc(-c2[nH]cnc2-c2ccc3ncc(Nc4nc5n(n4)CCN(C(C)C)C5)cc3c2)n1` [Compound 128, N-(7-isopropyl-6,8-dihydro-5H-[1,2,4]triazolo[1,5-a]pyrazin-2-yl)-6-[5-(6-methyl-2-pyridyl)-1H-imidazol-4-yl]quinolin-3-amine] the same measures were 0.0398 to 0.316 nM and 25.1 to 158 nM.
For `Cc1cccc(-c2[nH]cnc2-c2ccc3ncc(-c4ccc(C(=O)OCC5CNC5)cn4)cc3c2)n1` [Compound 1103, azetidin-3-ylmethyl 6-[6-[5-(6-methyl-2-pyridyl)-1H-imidazol-4-yl]-3-quinolyl]pyridine-3-carboxylate] the same measures were < 0.0316 nM and 25.1 to 158 nM.
